Source: patent US20100047306A1, “PHARMACEUTICAL COMPOSITIONS COMPRISING BISPHOSPONATES” (NOVARTIS AG, priority 2006, published 2010)

Tested on: Wistar rats
Assay: Tolerability study of calcium zoledronate microparticles in rats after s.c. administration (skin fold thickness)
Type: in vivo, rat
Conditions: s.c. injection of suspension, 60 microgram, female Wistar rats
Description: The microparticles of Examples 2 and 3 are suspended in a vehicle containing sodium carboxy methylcellulose, D-mannitol, Pluronics F68 and water for injection. 200 microliters of these suspensions were injected subcutaneously to the shaved skin at the left dorsal side of 8 weeks old female virgin Wistar rats (body weight approximately 220 g). In this way 1 mg dose (per animal) of zoledronic acid of the 15% calcium zoledronate microparticles (Example 3) and 2 mg dose (per animal) of zoledronic acid of the 10% calcium zoledronate microparticles (Example 2) were applied to a group of 6 animals per formulation. The thickness of the skin will be measured by a micro-caliper at the side of injection and the contra-lateral non-injected side. As reference a suspension of non-encapsulated drug substance is injected in a dose of 60 microgram. In addition, placebo microparticles made out of PLGA 75:25 (IV 0.68 dL/g) are also injected as control.

SMILES: O=P([O-])(O)C(O)(Cn1ccnc1)P(=O)([O-])O.[Ca+2] [non-encapsulated drug substance, calcium zoledronate]
- swelling of the skin / local skin irritation: strong swelling of the skin
